Assays:
SJL female mice = assay: Experimental Autoimmune Encephalitis (EAE); type: in vivo
Excerpt: EAE is an animal model of multiple sclerosis.
Mice in both groups were immunized with an encephalitogenic PLP peptide in complete Freund's adjuvant subcutaneously, followed by Petrussis Toxin (IV). Petrussis toxin was repeated on day 3 post immunization.
Animals were scored as follows:
Stage I: Limp tail syndrome
Stage II: Hind leg paralysis
Stage III: Hind leg paralysis-Dragging movement
Stage IV: Paralytic immobility, weight loss

[1] = system: dopaminergic neurons in mouse striatum; assay: 6-OHDA in mice, 3H-mazindol binding in striatal homogenates; type: in vivo; conditions: C7 4×66 mg/kg; 6-OHDA 50 μg i.c.v.
Protocol: 6-OHDA in mice. Adult male CFW mice were anesthetized with ketamine and rumpun, and immobilized in a stereotaxic device. 6-OHDA, as the hydrobromide salt, was dissolved in normal saline with 1% ascorbate, and 50 μg was administered in lateral ventricle by means of a 10 μl Hamilton syringe. […] Animals were sacrificed 7 days later, and neuronal pathology was assessed by measuring ^3H-mazindol binding in striatal homogenates.

[2] = Peroxidase activity, H2O2-dependent oxidation of ABTS; type: biochemical; conditions: C7 with 29 units/ml bovine liver catalase, 10 mM H2O2
Protocol: (§1) Peroxidase activity was assayed by monitoring the hydrogen peroxide-dependent oxidation of 2,2′-azino-bis(3-ethylbenzthiazoline-6) sulfonic acid (ABTS) spectrophotometrically. Standard assay mixtures consisted of 50 mM sodium phosphate, pH 8.1, 0.9% sodium chloride, 0.5 mM ABTS, and H2O2 and salen manganese complex as indicated. Where indicated, 50 mM sodium phosphate buffers of pH 6.0 or pH 7.1 were substituted. Assays were conducted at 27±0.2° C. ABTS oxidation was monitored at 740 or 500 nm to eliminate interference by the salen manganese complexes, many of which absorb in the vicinity of the λmax of oxidized ABTS, and to avoid absorbance values that exceeded the linear range of the spectrophotometer. The amount of oxidized ABTS was estimated using an Δε740 of 20,300 M^−1cm^−1 or an Δε500 of 3400 M^−1cm^−1 calculated based upon the published molar extinction coefficient oat 405 nm (36,800).
Compounds were assayed for SOD as described under Experimental procedures, using cytochrome C as acceptor. The concentration of each compound showing half-maximal activity in this assay is presented. Catalase and peroxidase activities were conducted as described under Experimental Procedures, with 10 μM salen manganese complex. The H2O2 concentration was 10 mM and 0.2 mM in the catalase and peroxidase assays, respectively. Where denoted, “nd” means that the assay was not performed on this compound.
Catalase and peroxidase activities were assayed as described in Example 2. Catalase assays contained 10 μM salen-manganese complex and 10 mM hydrogen peroxide. Peroxidase assays contained 10 μM salen-manganese complex and 0.2 mM hydrogen peroxide. Glucose-glucose oxidase toxicity assays were performed using human dermal fibroblasts as described in Example 2.

[3] = Peroxidase activity toward t-BHP, ABTS oxidation; type: biochemical; conditions: 1 mM t-BHP versus same concentration of H2O2
Protocol: as §1
(In comparison, horseradish peroxidase utilized t-BHP with an ABTS oxidation rate that was about 5.4% of the rate with H2O2).

[4] = C7 inactivation in H2O2, HPLC; type: physicochemical
Protocol: Where indicated, 1 mM ABTS was also present. Components were mixed and, after various incubations times, a 30 μl aliquot was injected onto the HPLC. The mixtures were chromatographed on an octadecyl-silica column using a mobile phase consisting of 60% methanol:40% 0.1 M NaCl and a flow rate of 1 ml/min. […] A third component, with a retention time of 4.8 min, was detectable under some conditions; its appearance and disappearance was monitored but it was not further analyzed. In this system, ABTS and its oxidized product had retention times of 3.4 and 3.1-min, respectively, well resolved from the peaks of interest. Absorbance spectra collected during each run allowed the identity of C7 and salicylaldehyde to be verified. All peaks were integrated based upon their absorbance at 240 nm. The results are expressed as the percentage of maximum peak area. […] For the two putative breakdown products, this is equivalent to the largest peak observed during the course of the ˜2000 sec incubation period.

[5] = system: Human dermal fibroblasts (HF cells); assay: Protection against t-butyl hydroperoxide toxicity in human fibroblasts (XTT); type: cell-based; conditions: 80 μM with 0.5 mM t-BHP
Protocol: Human dermal fibroblasts (HF cells) were obtained from the American type tissue Culture Collection at passage 1 and cultured and propagated in a medium (HF medium) consisting of Dulbecco's Modified Eagle's Medium with 4.5 g/l D-glucose, 10% calf serum 4 mM glutamine, 50 units/ml penicillin, and 50 μg/ml streptomycin in a 37° C. humidified incubator equilibrated with 5% CO2. Cells were used at passages 5 or 6 for experiments. For cell protection assays, HF cells were seeded at a density of about 15,000 cells per cm2 onto 96-well culture plates and allowed to grow to confluence. […] After 2 hr., the absorbance at 490 nm was measured in a BioRad (Richmond, Calif.) Model 3550 plate-reader, using a reference wavelength of 655 nm. […] Absorbance measurements for blank wells, containing HF medium and XTT reagent but no cells, were also determined. […] Fresh HF medium was then added and cell viability assessed using the XTT reagent as described above. […]
Cell protection assays were performed as described under Experimental Procedures with salen-manganese complexes administered at the indicated concentrations and t-BHP at 0.5 mM. Cell viability was assessed using the XTT reagent as described and is expressed as the absorbance at 490 nm uncorrected for blank. […]

neurons = assay: Amyloid peptide toxicity in neurons in vitro; type: cell-based
[6] = system: acidosis-induced mucosal injury; assay: In vitro model for acidosis-induced mucosal injury
[7] = 100 μM C7, 1 mM H2O2, with 1 mM ABTS

In the case of `[Cl][Mn]1[O]c2ccccc2C=NCCN=Cc2ccccc2[O]1` [Compound C7], the “mice that developed symptomatic EAE” value (SJL female mice; fifth week, three weeks after treatment was stopped, group of 10 mice) is reported as “six”, the “mice that developed symptomatic EAE” value (SJL female mice; third week following immunization, 1 mg/mouse daily IP, control 8 of 20) is reported as “one of 10” and the “effect on 6-OHDA-induced decrease in mazindol binding, contralateral striatum” value [1] is reported as “complete protection”. The “effect on 6-OHDA-induced decrease in mazindol binding, ipsilateral striatum” value [1] was “significant reduction”, the “total ABTS oxidized in the presence of added catalase” value [2] was 18 µM and the “ABTS oxidation rate with t-BHP as percent of the rate with H2O2” value [3] was “about 0.5%”. For the same compound, the “half life of the C7 peak” value ([4]; 100 μM C7, 1 mM H2O2, pH 8.1, absence of ABTS) was ~40 s, the “C7 peak that disappeared rapidly” value [4, 7] was “about 20%” and the “C7 remaining over the entire ~2000 sec incubation” value [4, 7] was 80%. The “reduced viability at 80 μM relative to 40 μM together with t-BHP” value [5] was “possible synergistic toxicity with t-BHP”, the “protection of neurons against amyloid peptide toxicity” value (neurons) was “protect neurons against amyloid peptide toxicity” and the “protection in acidosis-induced mucosal injury” value [6] was “protective”.

Reference: patent US6900198B2, “Synthetic catalytic free radical scavengers useful as antioxidants for prevention and therapy of disease” (Eukarion, Inc., priority 1995, dated 2005)
